According to US20140011853A1, “SUBSTITUTED 3-(BIPHENYL-3-YL)-8,8-DIFLUORO-4-HYDROXY-1-AZASPIRO[4.5]DEC-3-EN-2-ONES FOR THERAPY” (BAYER INTELLECTUAL PROPERTY GMBH, priority 2011, published 2014):
pIC50, pKd: −log10 of the molar value. Several values for one entry are separate records, joined by “and”; a condition that tells them apart may be missing. Equal entries are not always repeated. Where two headings read alike, the source gives them in different places.

What was measured:
[1] = molecular target: human ACC2 (Homo sapiens, UniProt O00763); experiment: Human ACC2 enzyme assay (ADP-Glo); settings: ACC 2 IC50, individual measurements
[2] = system: Myzus persicae; experiment: Myzus test (MYZUPE spray treatment); assay type: in vivo
Source text: Disks of Chinese cabbage (Brassica pekinensis) infested by all stages of the green peach aphid (Myzus persicae) are sprayed with an active compound formulation of the desired concentration.

[3] = system: H460; experiment: Tumour cell proliferation, CellTiter-Glo, 96-hour incubation, H460; assay type: cell-based
Procedure: (§1) In accordance with the invention, the substances were tested in cell-based assays for the ability of the substances of inhibiting tumour cell proliferation after a 96-hour incubation with the substance. Cell viability was tested using the CellTiter-Glo® luminescent cell viability assay (Promega). The cells were sown at a density of 2000-5000 cells/well (depending on the cell line) in 100 μl growth medium on 96-well microtiter plates. For each cell line examined, cells were sown on a separate plate to determine the luminescence at t=0 hours and t=96 hours. After overnight incubation at 37° C., the luminescence values for the t=0 samples were determined. The dose plates for the t=96 hours points in time were treated with substances diluted with growth medium. The cells were then incubated at 37° C. for 96 hours, and the luminescence values for the t=96 hours samples were then determined. For data analysis, the t=0 values were subtracted from the t=96 hours values for treated and untreated samples. The differences in luminescence in percent between substance-treated samples and control values were used to determine the growth inhibition in percent.
(§2) The substances were tested in the following cell lines which represent the stated indications in an exemplary manner: […]

[4] = system: KM12; experiment: Tumour cell proliferation, CellTiter-Glo, 96-hour incubation, KM12; assay type: cell-based
Procedure: as §1, §2

[5] = system: Tetranychus urticae; experiment: Tetranychus test, OP-resistant (TETRUR spray treatment); assay type: in vivo
[6] = system: PC3; experiment: Tumour cell proliferation, CellTiter-Glo, 96-hour incubation, PC3; assay type: cell-based
Procedure: as §1, §2

[7] = molecular target: T1, human ACC1 (Homo sapiens, UniProt Q13085); experiment: Human ACC1 enzyme assay (ADP-Glo); assay type: biochemical
T1 construct: FLAG (C); made in house; host or cells: baculovirus-infected insect cells (Hi5)

[8] = system: human ACC1; experiment: Human ACC1 enzyme assay (ADP-Glo); assay type: biochemical; settings: for Ratio of IC50s ACC2/ACC1 (respective measurement): pairwise, same dilution series
[9] = system: MCF7; experiment: Tumour cell proliferation, CellTiter-Glo, 96-hour incubation, MCF7; assay type: cell-based
Procedure: as §1, §2

[10] = system: Meloidogyne incognita; experiment: Meloidogyne incognita test (MELGIN); assay type: in vivo; settings: 20 ppm, after 14 days
Procedure: • Solvent: 125 parts by weight of acetone
Containers are filled with sand, solution of active compound, Meloidogyne incognita egg/larvae suspension and lettuce seeds. The lettuce seeds germinate and the plants develop. On the roots, galls are formed. After 14 days, the nematicidal effect in % is determined by the formation of galls. 100% means that no galls have been found; 0% means that the number of galls on the treated plants corresponds to the untreated control.

[11] = Membrane affinity logMA (MA-Transil); assay type: physicochemical; settings: buffer pH 7.4
[12] = molecular target: human serum albumin (HSA) (Homo sapiens, UniProt P02768); experiment: Protein binding to human serum albumin (HSA-Transil)
[13] = Octanol/water distribution coefficient (logP/D), isocratic HPLC method; assay type: physicochemical; settings: pH 7.4
Source text: Assay for Determining the Octanol/Water Distribution Coefficient (logP/D):
The distribution coefficient octanol/water P or D is a key parameter for estimating membrane penetration and permeability. It is defined as the ratio of the equilibrium concentrations of a substance in the two-phase system octanol/water.
It is usually stated in form of the decadic logarithm (logP or logD).
logP describes the distribution behaviour of a substance exclusively present in its neutral form. logD describes the distribution behaviour of a substance at a certain pH; depending on the ionization constant pKa of the substance, some of the substance may be present in ionic form, and some in neutral form.
The logP/D of the active compounds was determined using an isocratic HPLC method (HPLC=high performance liquid chromatography) (literature: OECD Guideline for Testing of Chemicals No. 117). The method is based on the correlation of the HPLC retention time of the test substance to that of reference substances with known distribution coefficients.
The test substance was employed as a 10 mM solution in DMSO (DMSO=dimethyl sulphoxide). 10 μl of this solution were made up to 100 μl with a methanol/water mixture in a ratio of 7+3.
The nine reference substances were dissolved individually in methanol. 100 μl each of the stock solutions were added to an HPLC vial and mixed with 300 μl of water.
A formamide solution was used to determine the hold-up time. To this end, 7 mg of formamide were dissolved in 10 ml of methanol. 100 μl of this stock solution were mixed with 500 μl of methanol and 200 μl of water.
All solutions were chromatographed using a flow rate of 1.00 ml/min.
Injection Protocol: formamide, references, test substance 1, test substance 2, . . . , formamide, references.
Evaluation of the retention times was carried out in a diode array detector (DAD) at 200-400 nm Via the molecular mass, the identity of the test substance was checked using the downstream mass spectrometer.
The HPLC run was evaluated using the Waters software Masslynx 4.1.
The logP/D values were calculated using the software “POW Determination” (proprietary development).

[14] = system: plasma proteins; experiment: Plasma protein binding by equilibrium dialysis, mouse; assay type: in vitro ADME
Procedure: (§3) The binding of test substances to plasma proteins is determined by equilibrium dialysis by means of the Ht-dialysis apparatus (96-well) made of Teflon and a semipermeable membrane (regenerated cellulose, MWCO 12-14K). This separates 150 μl each of a plasma side and a buffer side (50 mM phosphate buffer). The test substance is added in 2 concentrations (usually 3 and 0.3 μM) to the plasma side and binds to plasma proteins. The unbound fraction of the test substance passes through the membrane and is distributed on either side until equilibrium is established (after approx. 6-8 h at 37° C.). The substance concentration on the buffer side and the plasma side is determined by LC-MS analysis. For this, both sides are brought by dilution with buffer or plasma to the same matrix (10% plasma) and then precipitated with methanol. The free (unbound) fraction (fu) is calculated from the quotient of the buffer and plasma concentration. Stability tests and recovery tests are run concurrently as controls. In addition, the substance in buffer is dialysed against buffer, to check the nonspecific binding to apparatus and membrane and establishment of equilibrium. Because during incubation the osmotic pressure of the plasma proteins leads to dilution of the plasma (volume shift), this possible error is determined by weighing blank plasma samples and is included in the calculation of fu. Establishment of equilibrium and plasma stability should have a value not lower than 80% and the recovery should be at least 30%. A free fraction of <1% is regarded as high, between 1 and 10% as moderate and >10% as low plasma protein binding.

[15] = reference substances with known distribution coefficients; cited from earlier work
[16] = Plasma protein binding by equilibrium dialysis, rat; assay type: in vitro ADME; settings: read-out: fu (rat)
Procedure: as §3

[17] = Plasma protein binding by equilibrium dialysis, human; assay type: in vitro ADME; settings: read-out: fu (human)
Procedure: as §3

[18] = Plasma protein binding by equilibrium dialysis, mouse; assay type: in vitro ADME; settings: read-out: fu (mouse)
Procedure: as §3

[19] = system: Lucilia cuprina; experiment: Lucilia cuprina test (LUCICU); assay type: in vivo; settings: 100 ppm, after 2 days
Source text: (§4) • Solvent: dimethyl sulphoxide
Vessels containing horse meat treated with the active compound preparation of the desired concentration are populated with about 20 Lucilia cuprina larvae.

[20] = system: Spodoptera frugiperda; experiment: Spodoptera frugiperda test (SPODFR spray treatment); assay type: in vivo; settings: 500 g/ha, after 7 days
[21] = system: Phaedon cochleariae; experiment: Phaedon test (PHAECO spray treatment); settings: 500 g/ha, after 7 days
[22] = system: Boophilus microplus; experiment: Boophilus microplus test (BOOPMI injection); assay type: in vivo; settings: 20 μg/animal, after 7 days
Procedure: as §4
The solution of active compound is injected into the abdomen (Boophilus microplus), and the animals are transferred into dishes and kept in a climatized room. The activity is assessed by […] of fertile eggs.

[23] = ACC 1 IC50, individual measurements
[24] = Homo sapiens, MCF7, 96 h, read-out: MCF7 IC50
[25] = Homo sapiens, MCF7, 96 h; read-out: MCF7 IC50

Chain of human serum albumin (HSA) (P02768 25-609): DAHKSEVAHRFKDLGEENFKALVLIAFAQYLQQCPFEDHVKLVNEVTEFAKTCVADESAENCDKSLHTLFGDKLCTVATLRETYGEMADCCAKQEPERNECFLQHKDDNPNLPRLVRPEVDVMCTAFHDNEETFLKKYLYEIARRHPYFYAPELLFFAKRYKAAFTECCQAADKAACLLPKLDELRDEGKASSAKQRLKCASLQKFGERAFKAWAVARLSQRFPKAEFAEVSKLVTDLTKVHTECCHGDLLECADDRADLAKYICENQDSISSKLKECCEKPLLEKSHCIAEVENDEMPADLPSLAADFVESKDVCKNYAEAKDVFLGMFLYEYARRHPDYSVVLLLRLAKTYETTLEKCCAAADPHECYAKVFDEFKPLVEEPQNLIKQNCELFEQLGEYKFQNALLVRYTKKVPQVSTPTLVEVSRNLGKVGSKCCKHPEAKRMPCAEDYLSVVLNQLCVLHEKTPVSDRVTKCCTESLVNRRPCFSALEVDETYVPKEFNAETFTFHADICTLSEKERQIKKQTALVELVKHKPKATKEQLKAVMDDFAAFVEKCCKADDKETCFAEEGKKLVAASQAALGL
Chain of human ACC2 (O00763 27-2458 limits assumed): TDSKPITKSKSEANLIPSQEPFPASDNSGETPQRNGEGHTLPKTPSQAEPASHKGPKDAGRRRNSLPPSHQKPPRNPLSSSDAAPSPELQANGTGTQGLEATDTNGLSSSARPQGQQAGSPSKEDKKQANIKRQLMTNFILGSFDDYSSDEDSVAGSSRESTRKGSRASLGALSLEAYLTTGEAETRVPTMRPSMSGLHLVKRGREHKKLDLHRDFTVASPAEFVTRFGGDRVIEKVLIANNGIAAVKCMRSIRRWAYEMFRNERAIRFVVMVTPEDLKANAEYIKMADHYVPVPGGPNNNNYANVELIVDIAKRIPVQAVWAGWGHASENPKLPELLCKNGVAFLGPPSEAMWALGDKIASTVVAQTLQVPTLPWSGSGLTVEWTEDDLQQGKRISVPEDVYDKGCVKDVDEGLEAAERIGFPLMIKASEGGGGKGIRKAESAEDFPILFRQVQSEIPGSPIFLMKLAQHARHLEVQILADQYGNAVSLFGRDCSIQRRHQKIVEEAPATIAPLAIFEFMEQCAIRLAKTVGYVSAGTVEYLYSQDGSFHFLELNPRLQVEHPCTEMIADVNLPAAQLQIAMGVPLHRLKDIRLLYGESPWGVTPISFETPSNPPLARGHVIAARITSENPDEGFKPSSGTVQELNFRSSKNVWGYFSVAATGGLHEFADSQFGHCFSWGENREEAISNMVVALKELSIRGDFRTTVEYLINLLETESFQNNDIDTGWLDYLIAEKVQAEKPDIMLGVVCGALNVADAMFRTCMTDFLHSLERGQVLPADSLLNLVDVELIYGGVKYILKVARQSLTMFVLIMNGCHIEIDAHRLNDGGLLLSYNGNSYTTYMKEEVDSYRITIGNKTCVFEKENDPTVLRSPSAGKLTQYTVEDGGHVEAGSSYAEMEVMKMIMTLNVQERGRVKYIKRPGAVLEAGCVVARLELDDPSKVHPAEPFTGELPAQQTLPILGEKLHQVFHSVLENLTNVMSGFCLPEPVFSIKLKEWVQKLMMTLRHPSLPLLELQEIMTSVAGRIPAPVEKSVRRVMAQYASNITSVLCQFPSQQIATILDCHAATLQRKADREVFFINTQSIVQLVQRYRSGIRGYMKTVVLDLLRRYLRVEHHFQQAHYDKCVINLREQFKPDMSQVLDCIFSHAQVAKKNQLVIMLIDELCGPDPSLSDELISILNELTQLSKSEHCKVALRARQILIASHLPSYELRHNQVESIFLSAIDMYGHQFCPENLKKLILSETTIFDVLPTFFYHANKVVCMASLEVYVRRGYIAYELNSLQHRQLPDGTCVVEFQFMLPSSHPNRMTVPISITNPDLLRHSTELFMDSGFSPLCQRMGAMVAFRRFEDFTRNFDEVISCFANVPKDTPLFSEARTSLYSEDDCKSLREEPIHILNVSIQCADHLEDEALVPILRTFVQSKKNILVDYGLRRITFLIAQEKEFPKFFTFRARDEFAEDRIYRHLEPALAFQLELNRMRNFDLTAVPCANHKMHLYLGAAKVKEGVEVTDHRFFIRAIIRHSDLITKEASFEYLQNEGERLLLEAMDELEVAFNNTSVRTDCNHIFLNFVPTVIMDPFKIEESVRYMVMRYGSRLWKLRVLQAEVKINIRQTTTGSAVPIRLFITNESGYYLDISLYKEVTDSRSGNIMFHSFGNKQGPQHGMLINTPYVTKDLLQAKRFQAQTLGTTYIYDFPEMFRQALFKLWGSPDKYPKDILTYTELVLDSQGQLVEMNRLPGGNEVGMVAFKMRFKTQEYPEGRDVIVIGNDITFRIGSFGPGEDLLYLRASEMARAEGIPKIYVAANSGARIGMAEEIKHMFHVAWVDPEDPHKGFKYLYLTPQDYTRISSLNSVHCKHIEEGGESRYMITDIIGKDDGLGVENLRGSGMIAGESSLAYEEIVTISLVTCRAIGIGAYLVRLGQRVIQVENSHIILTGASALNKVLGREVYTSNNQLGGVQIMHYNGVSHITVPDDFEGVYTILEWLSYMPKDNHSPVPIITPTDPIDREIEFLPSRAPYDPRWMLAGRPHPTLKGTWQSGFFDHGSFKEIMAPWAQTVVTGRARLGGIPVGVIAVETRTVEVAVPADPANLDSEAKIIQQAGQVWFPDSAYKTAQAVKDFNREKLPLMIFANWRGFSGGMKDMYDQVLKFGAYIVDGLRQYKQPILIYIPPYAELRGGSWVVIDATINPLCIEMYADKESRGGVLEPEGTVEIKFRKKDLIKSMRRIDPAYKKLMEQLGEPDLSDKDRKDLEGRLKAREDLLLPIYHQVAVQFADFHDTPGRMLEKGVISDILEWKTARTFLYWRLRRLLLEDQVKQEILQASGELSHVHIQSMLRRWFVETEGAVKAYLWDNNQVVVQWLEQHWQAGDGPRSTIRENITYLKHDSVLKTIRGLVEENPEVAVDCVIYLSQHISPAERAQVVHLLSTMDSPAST

| SMILES | pIC50 [1] | pIC50 [7, 23] | Selectivity ACC1 vs. ACC2 (mean of the individual measurements ± standard deviation) [8] | Ratio of IC50s ACC2/ACC1 (respective measurement) [8] | pIC50 [9, 24] | nematicidal effect (formation of galls) [10] | logMA [11] | pIC50 [9, 25] | chromatographic logP [13] | fraction unbound [16] | pKd [12] | fraction unbound [17] | fraction unbound [18] | also measured |
| --- | --- | --- | --- | --- | --- | --- | --- | --- | --- | --- | --- | --- | --- | --- |
| Cc1ccc(-c2ccc(Cl)cc2)c(C)c1C1=C(O)C2(CCC(F)(F)CC2)NC1=O [Example 1-5, 3-(4′-Chloro-2,4-dimethylbiphenyl-3-yl)-8,8-difluoro-4-hydroxy-1-azaspiro[4.5]dec-3-en-2-one] | 5.57 | 6.66 | 12.4 | 12.4 | 6.69 | 100% |  |  |  |  |  |  |  | pest or weed control at 500 g/ha ([2]; Myzus persicae, 144 h, read-out: effect (kill of aphids)): 100%; pIC50 ([3]; Homo sapiens, NCI-H460, 96 h, read-out: H460 IC50): 6.11; pIC50 ([4]; Homo sapiens, KM12, 96 h, read-out: KM12 IC50): 6.18; pest or weed control at 100 g/ha ([5]; Tetranychus urticae, 144 h, read-out: effect (kill of spider mites)): 90%; pIC50 ([6]; Homo sapiens, PC-3, 96 h, read-out: PC3 IC50): 6.30; melting point: 141 to 145 °C |
| Cc1ccc(-c2ccc(Cl)cc2)cc1C1=C(O)[C@]2(CC[C@H](C(F)(F)F)CC2)NC1=O [V.2-a, (5s,8s)-3-(4′-Chloro-4-methylbiphenyl-3-yl)-4-hydroxy-8-(trifluoromethyl)-1-azaspiro[4.5]dec-3-en-2-one, reference compound] | 5.91 and 6.03 |  | 9.8 ± 1.4 | 11.2 and 8.4 |  |  | 2.38 (2.0-2.7, n = 4) | 7.46 | 2.23 |  |  |  |  | Kd at 0.25 μmol/liter ([12]; human, pH 7.4): 3.07 µM; pIC50 ([3]; Homo sapiens, NCI-H460, 96 h; read-out: H460 IC50): 7.24; pIC50 ([4]; Homo sapiens, KM12, 96 h; read-out: KM12 IC50): 7.43; pIC50 ([6]; Homo sapiens, PC-3, 96 h; read-out: PC3 IC50): 7.42; fu (mouse) [14]: 2.41% |
| Clc1ccc(C(c2ccc(Cl)cc2)C(Cl)(Cl)Cl)cc1 [DDT] |  |  |  |  |  |  |  |  |  |  |  |  |  | log P [15]: 6.2 |
| Cc1ccc(-c2ccc(Cl)cc2)cc1C1=C(O)C2(CCCCC2)NC1=O [V.2-b, 3-(4′-Chloro-4-methylbiphenyl-3-yl)-4-hydroxy-1-azaspiro[4.5]dec-3-en-2-one, reference compound] | 5.62 and 5.56 | 6.68 and 6.71 | 12.8 ± 1.3 | 11.5 and 14.1 | 7.39 |  | 2.05 (1.9-2.2, n = 2) |  | 2.77 | 0.0071 | 5.49 | 0.0036 | 0.0281 |  |
| Cc1ccc(-c2ccc(F)cc2)c(C)c1C1=C(O)C2(CCC(F)(F)CC2)NC1=O [Example I-1-a-2] |  |  |  |  |  | 100% |  |  |  |  |  |  |  | effect (kill of aphids) ([2]; 500 g/ha, after 6 days): 100%; kill of larvae [19]: 100%; effect (kill of caterpillars) [20]: 100%; effect (kill of spider mites) ([5]; 500 g/ha, after 6 days): 100%; effect (kill of beetle larvae) [21]: 100%; effect (no fertile eggs) [22]: 80% |
| Cc1ccc(-c2ccc(Cl)c(F)c2)cc1C1=C(O)C2(CCCCC2)NC1=O [V.1-b, 3-(4′-Chloro-3′-fluoro-4-methylbiphenyl-3-yl)-4-hydroxy-1-azaspiro[4.5]dec-3-en-2-one, reference compound] | 5.71 |  | 46.9 | 45.9 |  |  | 2.55 (2.4-2.9, n = 4) | 7.66 | 2.8 | 0.0612 | 5.46 | 0.004 | 0.0746 | pIC50 ([7]; individual measurements, read-out: ACC 1 IC50): 7.37 |
